# According to patent US10004773B2, “Plant compositions and methods and uses thereof for treating elevated glucocorticoid related disorders, and anxiety” (University of Ottawa, priority 2012, dated 2018):
# Tested on: nursery piglets
# Test: Feeding study in weaned nursery piglets
# Type: in vivo, pig
# Method: The test materials used in the study were the Souroubea gilgii and purified betulinic acid. The Souroubea gigli plant samples (labelled SS for Souroubea sp.) were harvested from the canals in Tortuguero, Costa Rica. The samples were chipped, dried and powdered. Samples were dried overnight in a commercial plant drier at 35° C. and ground to 1 mm mesh.
# The objective of the study was to investigate the production performance and stress related responses in nursery piglets that were fed a supplemented of either dried Souroubea gilgii plant material (SS) or one of its active anxiolytic compounds, purified betulinic acid (BA). The following parameters were evaluated: (1) plasma levels of Acute Phase Proteins (APP) and cortisol, (2) behavioral and stress related aggressive interactions and injuries (aggressive pushing, number of fights and the duration of fights in seconds), (3) production performance parameters (average daily gain (ADG), feed intake, feed efficiency (kg feed/kg body weight gain)) and (4) health evaluation (incidence of disease, disease treatments and deaths).
# The study included 300 piglets that were 21 days of age at the start of the experiment (day of weaning and first day of treatment). The piglets were treated at days 0 and 21 and monitored over a 39 day period. The pigs were 60 days of age at the end of the study. Pigs were randomly assigned to one of five treatment groups, with 60 pigs in each group: (1) Group A. untreated control, (2) Group B. 0.5 mg BA/kg body weight, (3) Group C. 1 mg BA/kg body weight, (4) Group D. 2 mg BA/kg body weight and (5) Group E. SS group, 500 mg ground SS leaves/kg body weight (BA concentration equivalent to 0.5 mg BA/kg body weight).
# Blood samples from 8 pigs in each treatment group were drawn on days 0, 2, 7, 14, 21 and 39 for a total of 240 blood samples, to determine plasma APP and cortisol levels. The same pigs from each treatment group were used for each blood sample day. Pigs were also weighed and feed intake was measured on these days to calculate performance parameters.
structure (smiles),measurement,setting,value
"C=C(C)[C@@H]1CC[C@]2(C(=O)O)CC[C@]3(C)[C@H](CC[C@@H]4[C@@]5(C)CC[C@H](O)C(C)(C)[C@@H]5CC[C@]43C)[C@@H]12 [BA, betulinic acid]",number of wounds,2 mg/kg (Group D),appeared to reduce
same,aggressive behavior and extent of injuries,BA doses below 2 mg/kg,little effect
same,plasma cortisol levels,"day 2, Group C 1 mg/kg BA, vs Groups A and B, p<0.01",significantly lower
same,plasma cortisol levels,"day 2, Group D 2 mg/kg BA, vs Groups A and B, p<0.01",significantly lower
same,plasma cortisol levels,"days 7 and 14, Group D 2 mg BA/kg, vs Group A, p<0.05",significantly lower
same,plasma cortisol levels,"first 14 days post-weaning, 2 mg BA/kg",significantly reduced
same,dose required to reduce plasma cortisol in the first days after weaning,piglets,1 mg BA/kg
